pIC50: −log10 of the molar value. The source made the active and inactive calls. No cut-off for these calls is given here.
Tests used:
[1] = species: Mus musculus; details: dose 90.0 mg/kg, time 5.0 day
[2] = test system: SW480; experiment: cells; details: Homo sapiens, SW480, 72 h
Description: Antiproliferative activity against human SW480 cells assessed as cell growth inhibition measured after 72 hrs by MTS assay

[3] = Clearance in C57BL/6 mouse at 20 mg/kg, po via gavage measured up to 24 hrs by LC-MS/MS analysis; assay type: ADME, organism-based; details: in vivo
[4] = Volume of distribution in C57BL/6 mouse at 1 mg/kg, iv measured after 5 mins by LC-MS/MS analysis; assay type: ADME, organism-based; details: in vivo
[5] = Cmax in C57BL/6 mouse at 1 mg/kg, iv measured after 5 mins by LC-MS/MS analysis; assay type: ADME, organism-based; set-up: route intravenous, dose 1 mg/kg, time 5 min; details: in vivo
[6] = test system: MDA-MB-468; experiment: Induction of apoptosis in human MDA-MB-468 cells assessed as late apoptotic cells at 10 uM measured after 72 hrs by annexinV-FITC/propidium iodide staining based flow cytometry (reference value: 13.9 %); assay type: functional
[7] = test system: MDA-MB-231; experiment: Antiinvasive activity against human MDA-MB-231 cells cultured as 3D-spheroids measured after 6 days by imaging analysis; assay type: functional, cell-based; details: dose 5-40 µM, time 6.0 day
[8] = Intrinsic clearance in mouse liver microsomes at 1 uM measured up to 60 mins in presence of NADPH by LC-MS/SM analysis; assay type: ADME, Microsome; details: 1 h
[9] = Half life in C57BL/6 mouse at 1 mg/kg, iv measured after 5 mins by LC-MS/MS analysis; assay type: ADME, organism-based; details: in vivo
[10] = test system: MDA-MB-231; experiment: Antiinvasive activity against human MDA-MB-231 cells cultured as 3D-spheroids at 5 uM measured after 6 days by imaging analysis relative to control; assay type: functional; details: time 6 day
[11] = test system: MDA-MB-231; experiment: Antiproliferative activity against human MDA-MB-231 cells harboring empty pcDNA3.1 vector at 20 uM measured after 72 hrs by MTS assay; assay type: functional, cell-based
[12] = species: Mus musculus; details: dose 90.0 mg/kg, time 5.0 day; remark: listed apart in the source
[13] = test system: MDA-MB-231; experiment: Induction of apoptosis in human MDA-MB-231 cells assessed as early apoptotic cells at 40 uM measured after 72 hrs by annexinV-FITC/propidium iodide staining based flow cytometry (reference value: 5.3 %); assay type: functional
[14] = Solubility of the compound in EtOH/saline (5/95) at 2 mg/ml; assay type: physicochemical; details: buffer
[15] = test system: MCF-10A; experiment: Induction of apoptosis in human MCF-10A cells assessed as early apoptotic cells at 40 uM measured after 72 hrs by annexinV-FITC/propidium iodide staining based flow cytometry (reference value: 28.9 %); assay type: cell-based
[16] = test system: MDA-MB-468; experiment: cells; details: Homo sapiens, MDA-MB-468, 72 h
Description: Antiproliferative activity against human MDA-MB-468 cells assessed as cell growth inhibition measured after 72 hrs by MTS assay

[17] = test system: MDA-MB-468; experiment: Inhibition of Wnt/beta-catenin transactivation signalling in Wnt3a stimulated human MDA-MB-468 cells assessed as relative activity at 12.5 uM measured after 24 hrs by TOPFlash reporter gene assay relative to control; assay type: cell-based; set-up: scale not given: the % may be the effect or the level left
[18] = Toxicity in SCID-Beige mouse orthotopically xenografted with patient-derived 4013 cells at 90 mg/kg, po via gavage for 5 days; assay type: organism-based; details: in vivo, 120 h, time 5 day
[19] = test system: MDA-MB-231; experiment: Induction of apoptosis in human MDA-MB-231 cells assessed as late apoptotic cells at 40 uM measured after 72 hrs by annexinV-FITC/propidium iodide staining based flow cytometry (reference value: 8.8 %); assay type: functional
[20] = species: Mus musculus; details: dose 90.0 mg/kg, time 5.0 day; remark: listed apart in the source
[21] = test system: MDA-MB-468; experiment: Antiproliferative activity against human MDA-MB-468 cells harboring empty pcDNA3.1 vector at 10 uM measured after 72 hrs by MTS assay; assay type: functional, cell-based
[22] = test system: MDA-MB-231; experiment: Antiinvasive activity against human MDA-MB-231 cells cultured as 3D-spheroids at 40 uM measured after 6 days by imaging analysis relative to control; assay type: functional; details: time 6 day
[23] = test system: MDA-MB-231; experiment: cells; details: Homo sapiens, MDA-MB-231, 72 h
Description: Antiproliferative activity against human MDA-MB-231 cells assessed as cell growth inhibition measured after 72 hrs by MTS assay

[24] = test system: SW480; experiment: Inhibition of Wnt/beta-catenin transactivation signalling in human SW480 cells assessed as relative activity at 1.56 uM measured after 24 hrs by TOPFlash reporter gene assay relative to control; assay type: cell-based; set-up: scale not given: the % may be the effect or the level left
[25] = test system: 4013; experiment: Antitumor activity against patient-derived 4013 cells orthotopically xenografted in SCID-Beige mouse assessed as reduction in tumor weight at 90 mg/kg, po via gavage for 5 days; assay type: functional, organism-based; details: Homo sapiens, time 5.0 day
[26] = test system: MCF-10A; experiment: Induction of apoptosis in human MCF-10A cells assessed as early apoptotic cells at 10 uM measured after 72 hrs by annexinV-FITC/propidium iodide staining based flow cytometry (reference value: 28.9 %); assay type: cell-based
[27] = Aqueous solubility of the compound; assay type: physicochemical; details: buffer
[28] = Cmax in C57BL/6 mouse at 20 mg/kg, po via gavage measured up to 24 hrs by LC-MS/MS analysis; assay type: ADME, organism-based; set-up: route oral, dose 20 mg/kg, time <=24; details: in vivo
[29] = Solubility of the compound in DMSO/Tween-80/H2O (10/10/80) at 2 mg/ml; assay type: physicochemical
[30] = test system: MDA-MB-468; experiment: Inhibition of Wnt/beta-catenin transactivation signalling in Wnt3a stimulated human MDA-MB-468 cells assessed as relative activity at 6.25 uM measured after 24 hrs by TOPFlash reporter gene assay relative to control; assay type: cell-based; set-up: scale not given: the % may be the effect or the level left
[31] = test system: MDA-MB-231; experiment: Antiinvasive activity against human MDA-MB-231 cells cultured as 3D-spheroids at 10 uM measured after 6 days by imaging analysis relative to control; assay type: functional; details: time 6 day
[32] = Half life in human liver microsomes at 1 uM measured up to 60 mins in presence of NADPH by LC-MS/SM analysis; assay type: ADME, Microsome; details: 1 h
[33] = test system: MDA-MB-468; experiment: Induction of apoptosis in human MDA-MB-468 cells assessed as early apoptotic cells at 20 uM measured after 72 hrs by annexinV-FITC/propidium iodide staining based flow cytometry (reference value: 28.9 %); assay type: functional
[34] = test system: MDA-MB-231; experiment: Downregulation of HPRT mRNA expression in Wnt3a stimulated human MDA-MB-231 cells at 10 to 40 uM measured after 24 hrs by qRT-PCR analysis; details: dose 10-40 µM
[35] = test system: SW480; experiment: Downregulation of HPRT mRNA expression in human SW480 cells at 10 to 40 uM measured after 24 hrs by qRT-PCR analysis; assay type: functional, cell-based; details: dose 10-40 µM
[36] = test system: MDA-MB-231; experiment: Antiproliferative activity against human MDA-MB-231 cells harboring beta-catenin pcDNA3.1 vector at 20 uM measured after 72 hrs by MTS assay; assay type: functional, cell-based
[37] = test system: MDA-MB-231; experiment: Induction of apoptosis in human MDA-MB-231 cells assessed as early apoptotic cells at 10 uM measured after 72 hrs by annexinV-FITC/propidium iodide staining based flow cytometry (reference value: 5.3 %); assay type: functional
[38] = Half life in C57BL/6 mouse at 20 mg/kg, po via gavage measured up to 24 hrs by LC-MS/MS analysis; assay type: ADME, organism-based; details: in vivo
[39] = Half life in mouse liver microsomes at 1 uM measured up to 60 mins in presence of NADPH by LC-MS/SM analysis; assay type: ADME, Microsome; details: 1 h
[40] = test system: MDA-MB-468; experiment: Inhibition of Wnt/beta-catenin transactivation signalling in Wnt3a stimulated human MDA-MB-468 cells assessed as relative activity at 25 uM measured after 24 hrs by TOPFlash reporter gene assay relative to control; assay type: cell-based; set-up: scale not given: the % may be the effect or the level left

CC(C)(Oc1cccc(N2CCC[C@@H](C(=O)N(Cc3ccc(-c4cn[nH]c4)cc3)C3CC3)C2)c1)C(=O)N1CCNCC1.Cl
inhibition [1]: Active
pIC50 [2]: 4.62
CL/F [3]: 51.1 mL/min/kg
Vd [4]: 8 L/kg
Cmax [5]: 790 nM
Activity [6]: 17.6%
Activity [7]: Dose-Dependent Effect
CLint [8]: 72 µL/min/mg
t1/2 [9]: 211 min
Activity [10]: 76.3%
Activity [11]: Active
inhibition [12]: Active
Activity [13]: 53.1%
solubility [14]: Soluble
Activity [15]: 3.9%
pIC50 [16]: 5.02
Activity [17]: 96%
Activity [18]: Toxic
Activity [19]: 18.9%
inhibition [20]: Active
Activity [21]: Active
Activity [22]: 10.9%
pIC50 [23]: 4.55
Activity [24]: 95%
Activity [25]: inactive
Activity [26]: 1.9%
solubility [27]: > 3000 µM
Cmax [28]: 3210 nM
solubility [29]: Soluble
Activity [30]: 102%
Activity [31]: 47.5%
t1/2 [32]: 38.4 min
Activity [33]: 34.6%
Activity [34]: inactive
Activity [35]: inactive
Activity [36]: inactive
Activity [37]: 5.4%
t1/2 [38]: 184 min
t1/2 [39]: 9.6 min
Activity [40]: 89%

From ChEMBL document CHEMBL4840323, “Discovery of an Orally Bioavailable Small-Molecule Inhibitor for the β-Catenin/B-Cell Lymphoma 9 Protein-Protein Interaction” (J Med Chem, 2021)
